System: human epidermal keratinocytes
Experiment: Wound repair (scratch wound closure) in keratinocyte culture
Assay type: cell-based
Protocol: The cells were cultured in a 24-well box (20 to 30 000 cells per well). At confluence, a “wound” was made at the center of the well using an “Essen Woundmaker” (Essen Bioscience, Ann Arbor, USA). After rinsing the wells with PBS to remove detached cells, the optional test agent was applied and illumination was started.
Cell migration was followed by two types of instrumentation, (i) videomicroscopy or (ii) Incucyte (Essen Bioscience): whereby a photo from the culture well is recorded every 30 minutes or every hour over a period of 48 hours.
Healing of wounds was studied by dynamic microscopy using a Nikon Eclipse Ti microscope allowing the taking of pictures at intervals of 30 minutes for 24 hours on primary cultures of human fibroblasts and keratinocytes. In this way, it was possible to assess the level of healing.
Incucyte is a device for visualizing and quantifying cell migration in a CO2 incubator at 37° C. The device is used with the Essen Woundmaker. The equipment was calibrated to produce wounds in cell cultures with high reproducibility. The device featured integrated processing software acquisition and image analysis allowing for quantification of the migration rate of cells.
The setup of this experiment was as described in the Materials and Methods Section herein above. […]

CCCCCCCCCCCCCCCC(=O)O[C@@H]1C[C@@H](C(=O)O)N(C(=O)CCCCCCCCCCCCCCC)C1 [DPHP, Dipalmitoylhydroxyproline]
effect on skin wound repair (DPHP serum in combination with 3-LED lighting, keratinocytes (FIG. 4)): positive effect | time to 45% wound closure (serum (0.175 wt. % DPHP) added at 0.05 wt % of medium, with 3 LEDs 520, 660, 780 nm for 15 seconds, instead of 10 hrs): 6 h

Reference: patent US10953237B2, “Methods of providing skin care using phototherapy” (InDerm, priority 2015, dated 2021)
